Test results from PMC10673995, “Discovery of a novel cardiac-specific myosin modulator using artificial intelligence-based virtual screening” (Nature Communications, 2023).
Where “and” joins values, the source holds several entries; their conditions need not be identical. Equal entries are not always repeated.

Columns and labels:
[1] = target: T1, synthetic thick filaments formed from purified full-length bovine β-cardiac myosin (Bos taurus, UniProt Q9BE39); test: mant-ATP chase single nucleotide turnover, synthetic thick filaments; type: biochemical; conditions: for Representative Traces (mant-ATP chase, fluorescence signal over time): Figure 3b
T1 construct: diluting full-length bovine cardiac myosin stock into assay buffer; from tissue; host or cells: bovine cardiac muscle (the text says isolated/purified and describes no preparation)
T1 sequence (Q9BE39 whole entry): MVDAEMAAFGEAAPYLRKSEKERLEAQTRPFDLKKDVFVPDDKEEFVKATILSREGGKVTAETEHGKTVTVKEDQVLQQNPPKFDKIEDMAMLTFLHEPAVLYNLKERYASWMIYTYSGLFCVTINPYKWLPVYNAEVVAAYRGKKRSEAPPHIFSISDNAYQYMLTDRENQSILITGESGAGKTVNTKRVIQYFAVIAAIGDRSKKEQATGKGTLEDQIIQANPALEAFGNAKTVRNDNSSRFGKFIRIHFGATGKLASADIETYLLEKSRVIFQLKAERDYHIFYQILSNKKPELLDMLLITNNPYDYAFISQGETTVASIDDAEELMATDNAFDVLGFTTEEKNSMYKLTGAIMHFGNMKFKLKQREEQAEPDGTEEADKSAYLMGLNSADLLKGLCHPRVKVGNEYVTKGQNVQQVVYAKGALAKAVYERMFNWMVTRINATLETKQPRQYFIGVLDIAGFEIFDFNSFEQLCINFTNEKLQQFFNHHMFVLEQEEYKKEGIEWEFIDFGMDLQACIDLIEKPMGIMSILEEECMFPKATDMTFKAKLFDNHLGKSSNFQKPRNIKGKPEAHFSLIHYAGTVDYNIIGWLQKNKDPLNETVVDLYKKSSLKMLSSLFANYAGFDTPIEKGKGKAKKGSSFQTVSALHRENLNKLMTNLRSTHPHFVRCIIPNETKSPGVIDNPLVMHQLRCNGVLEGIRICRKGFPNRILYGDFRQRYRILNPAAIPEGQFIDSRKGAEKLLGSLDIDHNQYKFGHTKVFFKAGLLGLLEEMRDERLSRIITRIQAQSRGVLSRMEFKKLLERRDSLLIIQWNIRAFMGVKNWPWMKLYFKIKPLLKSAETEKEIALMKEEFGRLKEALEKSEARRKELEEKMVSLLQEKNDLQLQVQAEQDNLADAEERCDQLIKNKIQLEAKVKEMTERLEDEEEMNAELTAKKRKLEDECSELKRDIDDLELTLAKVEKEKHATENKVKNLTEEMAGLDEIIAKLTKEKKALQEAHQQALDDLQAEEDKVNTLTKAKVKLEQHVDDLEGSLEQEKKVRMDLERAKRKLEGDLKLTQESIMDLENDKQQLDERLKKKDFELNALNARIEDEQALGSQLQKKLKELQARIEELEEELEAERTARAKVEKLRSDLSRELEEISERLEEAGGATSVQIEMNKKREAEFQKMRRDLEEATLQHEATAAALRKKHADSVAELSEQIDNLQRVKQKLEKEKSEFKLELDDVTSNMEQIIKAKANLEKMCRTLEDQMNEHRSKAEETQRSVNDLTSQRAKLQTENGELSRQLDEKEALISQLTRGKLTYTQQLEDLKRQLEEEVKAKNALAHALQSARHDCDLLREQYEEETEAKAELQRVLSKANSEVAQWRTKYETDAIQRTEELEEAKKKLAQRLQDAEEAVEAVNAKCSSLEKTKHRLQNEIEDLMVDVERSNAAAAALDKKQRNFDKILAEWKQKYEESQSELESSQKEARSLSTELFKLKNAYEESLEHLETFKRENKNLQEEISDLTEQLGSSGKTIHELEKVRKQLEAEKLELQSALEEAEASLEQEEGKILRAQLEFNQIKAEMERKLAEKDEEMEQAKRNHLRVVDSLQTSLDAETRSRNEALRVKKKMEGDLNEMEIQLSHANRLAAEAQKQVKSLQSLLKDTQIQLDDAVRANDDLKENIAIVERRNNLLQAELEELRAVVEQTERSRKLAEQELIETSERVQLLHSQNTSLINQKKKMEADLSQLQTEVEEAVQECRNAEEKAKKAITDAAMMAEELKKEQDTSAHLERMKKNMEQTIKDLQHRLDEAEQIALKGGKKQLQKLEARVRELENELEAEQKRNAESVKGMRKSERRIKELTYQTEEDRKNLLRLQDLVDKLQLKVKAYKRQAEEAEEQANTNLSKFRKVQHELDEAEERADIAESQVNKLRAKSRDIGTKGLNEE
T1 sequence (P85100 whole entry partner): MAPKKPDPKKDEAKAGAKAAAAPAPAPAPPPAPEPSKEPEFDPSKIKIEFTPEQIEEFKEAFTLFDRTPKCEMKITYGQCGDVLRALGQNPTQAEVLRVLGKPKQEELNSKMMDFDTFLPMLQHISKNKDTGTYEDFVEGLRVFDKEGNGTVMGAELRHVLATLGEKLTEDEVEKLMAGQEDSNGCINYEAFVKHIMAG
T1 sequence (Q3SZE5 whole entry partner): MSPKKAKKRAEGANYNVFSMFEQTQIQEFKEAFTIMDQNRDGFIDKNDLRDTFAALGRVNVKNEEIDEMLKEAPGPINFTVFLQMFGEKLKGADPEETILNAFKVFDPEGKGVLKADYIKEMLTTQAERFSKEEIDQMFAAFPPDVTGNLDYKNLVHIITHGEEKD
Description: We used systems of increasing complexity ranging from the isolated cardiac myosin motor domains (Fig. 3a) to synthetic thick filaments formed from purified full-length bovine cardiac myosin (Fig. 3b) and bovine cardiac myofibrils as substrates in the chase assays (Fig. 3c). In contrast to the isolated myosin motors, synthetic thick filaments contain two myosin head domains per molecule connected via their coiled-coil tail.
Synthetic thick filaments were freshly prepared by diluting full-length bovine cardiac myosin stock into assay buffer (composition in mmol L^−1: 15 PIPES pH 7, 5 MgCl2, 1 DTT) and incubation on ice for 2 h. Bovine myosin S1 and synthetic thick filament concentrations were adjusted to 0.4 μmol L^−1 with assay buffer and 40 μL aliquoted into individual wells of a black 384-well plate (Greiner). Mant-ATP (JenaBioscience) was added to each well to a final concentration of 0.4 μmol L^−1 using an automated injector unit in a ClarioStar Plate Reader (BMG LabTech) and the system was allowed to age for 1 min. The chase phase was started by adding a final concentration of 2 mmol L^−1 ATP using a second automated injector unit. Fluorescence intensity from each well was constantly measured for 15 min every 1 sec at 25 °C with the following settings: excitation at 360 nm with a 20 nm bandwidth and emission at 450 nm with a 20 nm bandwidth. For experiments with cardiac myofibrils the concentration was adjusted to 1 mg m L^−1, and the mant-ATP and ATP concentrations were increased to 20 μmol L^−1 and 20 mmol L^−1, respectively.

bovine cardiac myosin S1 = bovine cardiac myosin S1 (Bos taurus, UniProt Q9BE39); test: mant-ATP chase single nucleotide turnover, myosin S1; conditions: for Representative Traces (mant-ATP chase, normalised signal): representative trace, sheet Figure 3a;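 on all read-outs here: 0.4 µM S1 preloaded with equimolar mant-ATP, chased by 2 mM ATP, mant fluorescence (ex 360, em 450 nm) read each second over 15 min at 25 °C, biexponential fit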
Sequence of bovine cardiac myosin S1 (Q9BE39 85-778 limits assumed): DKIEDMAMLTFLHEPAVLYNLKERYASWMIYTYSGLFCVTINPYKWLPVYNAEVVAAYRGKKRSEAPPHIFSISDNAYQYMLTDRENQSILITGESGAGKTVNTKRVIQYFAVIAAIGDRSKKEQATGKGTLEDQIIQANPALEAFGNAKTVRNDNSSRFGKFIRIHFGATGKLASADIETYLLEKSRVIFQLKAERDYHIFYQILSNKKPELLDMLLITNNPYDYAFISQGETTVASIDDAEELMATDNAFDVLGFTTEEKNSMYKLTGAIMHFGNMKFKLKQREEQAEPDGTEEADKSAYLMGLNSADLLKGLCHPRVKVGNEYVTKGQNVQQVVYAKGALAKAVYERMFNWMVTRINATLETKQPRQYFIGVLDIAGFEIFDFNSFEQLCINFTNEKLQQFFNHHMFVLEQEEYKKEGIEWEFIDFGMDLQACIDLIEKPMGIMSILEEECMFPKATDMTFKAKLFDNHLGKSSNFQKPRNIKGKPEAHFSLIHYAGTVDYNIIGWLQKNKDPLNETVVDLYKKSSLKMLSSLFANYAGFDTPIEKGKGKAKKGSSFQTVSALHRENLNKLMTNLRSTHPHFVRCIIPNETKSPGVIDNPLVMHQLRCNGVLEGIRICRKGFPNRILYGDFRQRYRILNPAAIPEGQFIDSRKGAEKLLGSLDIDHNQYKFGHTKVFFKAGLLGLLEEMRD
Sequence of bovine cardiac myosin S1 (P85100 whole entry partner): as the sequence (P85100 whole entry partner) above
Description: Chase of mant-ATP loaded cardiac myosin S1 with ATP leads to a decrease in the mant fluorescence intensity which is best described by a bi-exponential decay function with an initial fast phase followed by a second slower phase, corresponding to the so-called disordered (DRX) and super-relaxed state (SRX) of myosin, respectively.

[2] = Synthetic Myosin Filaments, individual replicates
[3] = Beta-cardiac myosin S1, individual replicates

`CC(C)n1c(=O)cc(N[C@@H](C)c2ccccc2)[nH]c1=O` [Mavacamten] was tested, and the “effect on the rate of the fast DRX phase” value [1] was “no effect”, the “Bar graph (Figure 3b, mant-ATP chase)” value ([1]; Figure 3b source data, individual replicate values) was 77.58 and 71.76 and 78.3 and 63.78 and 62.87 and 75.77 and 68.24 and the “Representative Traces (mant-ATP chase, fluorescence signal over time)” value ([1]; t = 796 s) was 0.1167. The “Representative Traces (mant-ATP chase, fluorescence signal over time)” value ([1]; t = 797 s) was 0.08985, the “Representative Traces (mant-ATP chase, fluorescence signal over time)” value ([1]; t = 798 s) was 0.08985 and the kfast [1, 2] was 0.1528 s⁻¹ and 0.02969 s⁻¹ and 0.09681 s⁻¹ and 0.02631 s⁻¹ and 0.06313 s⁻¹ and 0.02802 s⁻¹. For the same molecule, the kslow [1, 2] was 0.001307 s⁻¹ and 0.001384 s⁻¹ and 0.002093 s⁻¹ and 0.003633 s⁻¹ and 0.005541 s⁻¹ and 0.004994 s⁻¹, the slow phase [1, 2] was 71.76% and 78.3% and 63.78% and 62.87% and 75.77% and 68.24% and the kslow ([1]; control 0.0046 ± 0.0007) was 0.0033 ± 0.0007 s⁻¹. For the same molecule, the kfast ([1]; control […]) was 0.0593 ± 0.0188 s⁻¹, the “effect on the rate of the fast DRX phase” value (bovine cardiac myosin S1) was “no effect” and the kslow (bovine cardiac myosin S1; 2 μmol L^-1 Mavacamten or 20 μmol L^-1 F10, control 0.0058 ± 0.0010) was 0.0035 ± 0.0002 s⁻¹. For the same molecule, the kfast (bovine cardiac myosin S1; [3]) was 0.009858 s⁻¹ and 0.01039 s⁻¹ and 0.07197 s⁻¹ and 0.03575 s⁻¹ and 0.01101 s⁻¹ and 0.01169 s⁻¹, the kslow (bovine cardiac myosin S1; [3]) was 0.00364 s⁻¹ and 0.002861 s⁻¹ and 0.004023 s⁻¹ and 0.004095 s⁻¹ and 0.003004 s⁻¹ and 0.003638 s⁻¹ and the slow phase (bovine cardiac myosin S1; [3]) was 82.01% and 63.89% and 87.3% and 56.77% and 56.99% and 79.26%. The “Representative Traces, normalised fluorescence” value (bovine cardiac myosin S1; t 396 s) was 0.2925, the “Representative Traces, normalised fluorescence” value (bovine cardiac myosin S1; t 397 s) was 0.3426 and the “Representative Traces, normalised fluorescence” value (bovine cardiac myosin S1; t 398 s) was 0.3062. For the same molecule, the “Representative Traces, normalised fluorescence” value (bovine cardiac myosin S1; t 399 s) was 0.3254, the “Representative Traces, normalised fluorescence” value (bovine cardiac myosin S1; t 400 s) was 0.3408 and the “Representative Traces, normalised fluorescence” value (bovine cardiac myosin S1; t 401 s) was 0.3177. The “Representative Traces, normalised fluorescence” value (bovine cardiac myosin S1; t 402 s) was 0.2999, the “Representative Traces, normalised fluorescence” value (bovine cardiac myosin S1; t 403 s) was 0.3192 and the “Representative Traces, normalised fluorescence” value (bovine cardiac myosin S1; t 404 s) was 0.3277. The “Representative Traces, normalised fluorescence” value (bovine cardiac myosin S1; t 405 s) was 0.3461, the “Representative Traces, normalised fluorescence” value (bovine cardiac myosin S1; t 406 s) was 0.3076 and the “Representative Traces, normalised fluorescence” value (bovine cardiac myosin S1; t 407 s) was 0.3064. The “Representative Traces, normalised fluorescence” value (bovine cardiac myosin S1; t 408 s) was 0.3235, the “Representative Traces, normalised fluorescence” value (bovine cardiac myosin S1; t 409 s) was 0.3324 and the “Representative Traces, normalised fluorescence” value (bovine cardiac myosin S1; t 411 s) was 0.3126. For the same molecule, the “Representative Traces, normalised fluorescence” value (bovine cardiac myosin S1; t 412 s) was 0.2865, the “Representative Traces, normalised fluorescence” value (bovine cardiac myosin S1; t 413 s) was 0.2993 and the “Representative Traces, normalised fluorescence” value (bovine cardiac myosin S1; t 414 s) was 0.3256. For the same molecule, the “Representative Traces, normalised fluorescence” value (bovine cardiac myosin S1; t 415 s) was 0.2791, the “Representative Traces, normalised fluorescence” value (bovine cardiac myosin S1; t 416 s) was 0.3071 and the “Representative Traces, normalised fluorescence” value (bovine cardiac myosin S1; t 417 s) was 0.3285. For the same molecule, the “Representative Traces, normalised fluorescence” value (bovine cardiac myosin S1; t 418 s) was 0.3567, the “Representative Traces, normalised fluorescence” value (bovine cardiac myosin S1; t 419 s) was 0.2951 and the “Representative Traces, normalised fluorescence” value (bovine cardiac myosin S1; t 420 s) was 0.2958. For the same molecule, the “Representative Traces, normalised fluorescence” value (bovine cardiac myosin S1; t 421 s) was 0.2771, the “Representative Traces, normalised fluorescence” value (bovine cardiac myosin S1; t 422 s) was 0.3283 and the “Representative Traces, normalised fluorescence” value (bovine cardiac myosin S1; t 423 s) was 0.3329. For the same molecule, the “Representative Traces, normalised fluorescence” value (bovine cardiac myosin S1; t 424 s) was 0.3402, the “Representative Traces, normalised fluorescence” value (bovine cardiac myosin S1; t 425 s) was 0.3675 and the “Representative Traces, normalised fluorescence” value (bovine cardiac myosin S1; t 426 s) was 0.3241. The “Representative Traces, normalised fluorescence” value (bovine cardiac myosin S1; t 427 s) was 0.3018, the “Representative Traces, normalised fluorescence” value (bovine cardiac myosin S1; t 429 s) was 0.3105 and the “Representative Traces, normalised fluorescence” value (bovine cardiac myosin S1; t 430 s) was 0.2835. The “Representative Traces, normalised fluorescence” value (bovine cardiac myosin S1; t 431 s) was 0.3652, the “Representative Traces, normalised fluorescence” value (bovine cardiac myosin S1; t 432 s) was 0.276 and the “Representative Traces, normalised fluorescence” value (bovine cardiac myosin S1; t 433 s) was 0.3282. For the same molecule, the “Representative Traces, normalised fluorescence” value (bovine cardiac myosin S1; t 434 s) was 0.3046, the “Representative Traces, normalised fluorescence” value (bovine cardiac myosin S1; t 436 s) was 0.327 and the “Representative Traces, normalised fluorescence” value (bovine cardiac myosin S1; t 438 s) was 0.2936. For the same molecule, the “Representative Traces, normalised fluorescence” value (bovine cardiac myosin S1; t 439 s) was 0.2402, the “Representative Traces, normalised fluorescence” value (bovine cardiac myosin S1; t 440 s) was 0.312 and the “Representative Traces, normalised fluorescence” value (bovine cardiac myosin S1; t 442 s) was 0.3011. The “Representative Traces, normalised fluorescence” value (bovine cardiac myosin S1; t 443 s) was 0.3298, the “Representative Traces, normalised fluorescence” value (bovine cardiac myosin S1; t 444 s) was 0.251 and the “Representative Traces, normalised fluorescence” value (bovine cardiac myosin S1; t 445 s) was 0.2991. For the same molecule, the “Representative Traces, normalised fluorescence” value (bovine cardiac myosin S1; t 448 s) was 0.3473, the “Representative Traces, normalised fluorescence” value (bovine cardiac myosin S1; t 449 s) was 0.3057 and the “Representative Traces, normalised fluorescence” value (bovine cardiac myosin S1; t 450 s) was 0.2886. The “Representative Traces, normalised fluorescence” value (bovine cardiac myosin S1; t 451 s) was 0.2859, the “Representative Traces, normalised fluorescence” value (bovine cardiac myosin S1; t 452 s) was 0.29 and the “Representative Traces, normalised fluorescence” value (bovine cardiac myosin S1; t 453 s) was 0.2756. For the same molecule, the “Representative Traces, normalised fluorescence” value (bovine cardiac myosin S1; t 454 s) was 0.2575, the “Representative Traces, normalised fluorescence” value (bovine cardiac myosin S1; t 455 s) was 0.3029 and the “Representative Traces, normalised fluorescence” value (bovine cardiac myosin S1; t 457 s) was 0.3415. For the same molecule, the “Representative Traces, normalised fluorescence” value (bovine cardiac myosin S1; t 458 s) was 0.2853, the “Representative Traces, normalised fluorescence” value (bovine cardiac myosin S1; t 459 s) was 0.3237 and the “Representative Traces, normalised fluorescence” value (bovine cardiac myosin S1; t 460 s) was 0.3029. The “Representative Traces, normalised fluorescence” value (bovine cardiac myosin S1; t 461 s) was 0.3217, the “Representative Traces, normalised fluorescence” value (bovine cardiac myosin S1; t 462 s) was 0.3036 and the “Representative Traces, normalised fluorescence” value (bovine cardiac myosin S1; t 463 s) was 0.347. The “Representative Traces, normalised fluorescence” value (bovine cardiac myosin S1; t 464 s) was 0.2897, the “Representative Traces, normalised fluorescence” value (bovine cardiac myosin S1; t 465 s) was 0.2531 and the “Representative Traces, normalised fluorescence” value (bovine cardiac myosin S1; t 466 s) was 0.2878. For the same molecule, the “Representative Traces, normalised fluorescence” value (bovine cardiac myosin S1; t 467 s) was 0.2939, the “Representative Traces, normalised fluorescence” value (bovine cardiac myosin S1; t 468 s) was 0.2524 and the “Representative Traces, normalised fluorescence” value (bovine cardiac myosin S1; t 469 s) was 0.272. The “Representative Traces, normalised fluorescence” value (bovine cardiac myosin S1; t 470 s) was 0.2865, the “Representative Traces, normalised fluorescence” value (bovine cardiac myosin S1; t 471 s) was 0.2593 and the “Representative Traces, normalised fluorescence” value (bovine cardiac myosin S1; t 472 s) was 0.2417. The “Representative Traces, normalised fluorescence” value (bovine cardiac myosin S1; t 473 s) was 0.3026, the “Representative Traces, normalised fluorescence” value (bovine cardiac myosin S1; t 474 s) was 0.305 and the “Representative Traces, normalised fluorescence” value (bovine cardiac myosin S1; t 475 s) was 0.2893. The “Representative Traces, normalised fluorescence” value (bovine cardiac myosin S1; t 476 s) was 0.2207, the “Representative Traces, normalised fluorescence” value (bovine cardiac myosin S1; t 477 s) was 0.2579 and the “Representative Traces, normalised fluorescence” value (bovine cardiac myosin S1; t 479 s) was 0.2507. For the same molecule, the “Representative Traces, normalised fluorescence” value (bovine cardiac myosin S1; t 481 s) was 0.3039, the “Representative Traces, normalised fluorescence” value (bovine cardiac myosin S1; t 482 s) was 0.2976 and the “Representative Traces, normalised fluorescence” value (bovine cardiac myosin S1; t 483 s) was 0.3557. For the same molecule, the “Representative Traces, normalised fluorescence” value (bovine cardiac myosin S1; t 484 s) was 0.2911, the “Representative Traces, normalised fluorescence” value (bovine cardiac myosin S1; t 485 s) was 0.3282 and the “Representative Traces, normalised fluorescence” value (bovine cardiac myosin S1; t 486 s) was 0.3063. For the same molecule, the “Representative Traces, normalised fluorescence” value (bovine cardiac myosin S1; t 487 s) was 0.301, the “Representative Traces, normalised fluorescence” value (bovine cardiac myosin S1; t 489 s) was 0.3448 and the “Representative Traces, normalised fluorescence” value (bovine cardiac myosin S1; t 490 s) was 0.2903. The “Representative Traces, normalised fluorescence” value (bovine cardiac myosin S1; t 491 s) was 0.2724, the “Representative Traces, normalised fluorescence” value (bovine cardiac myosin S1; t 492 s) was 0.2681 and the “Representative Traces, normalised fluorescence” value (bovine cardiac myosin S1; t 493 s) was 0.2418. For the same molecule, the “Representative Traces, normalised fluorescence” value (bovine cardiac myosin S1; t 494 s) was 0.2422, the “Representative Traces, normalised fluorescence” value (bovine cardiac myosin S1; t 495 s) was 0.2809 and the “Representative Traces, normalised fluorescence” value (bovine cardiac myosin S1; t 496 s) was 0.2322. For the same molecule, the “Representative Traces, normalised fluorescence” value (bovine cardiac myosin S1; t 498 s) was 0.212, the “Representative Traces, normalised fluorescence” value (bovine cardiac myosin S1; t 499 s) was 0.2038 and the “Representative Traces, normalised fluorescence” value (bovine cardiac myosin S1; t 500 s) was 0.275. The “Representative Traces, normalised fluorescence” value (bovine cardiac myosin S1; t 501 s) was 0.2793, the “Representative Traces, normalised fluorescence” value (bovine cardiac myosin S1; t 502 s) was 0.2398 and the “Representative Traces, normalised fluorescence” value (bovine cardiac myosin S1; t 503 s) was 0.2758. The “Representative Traces, normalised fluorescence” value (bovine cardiac myosin S1; t 504 s) was 0.2833, the “Representative Traces, normalised fluorescence” value (bovine cardiac myosin S1; t 505 s) was 0.2324 and the “Representative Traces, normalised fluorescence” value (bovine cardiac myosin S1; t 506 s) was 0.2749. The “Representative Traces, normalised fluorescence” value (bovine cardiac myosin S1; t 507 s) was 0.3022, the “Representative Traces (mant-ATP chase, normalised signal)” value (bovine cardiac myosin S1; t = 796 s) was 0.1415 and the “Representative Traces (mant-ATP chase, normalised signal)” value (bovine cardiac myosin S1; t = 797 s) was 0.08266.
